Laboratory results reported in patent publication US9624544B2, “Allelic disorders caused by mutations in TRPV4” (Northwestern University, priority 2009, dated 2017).

Legend:
[1] = system: TRPV4 (wtTRPV4, TRPV4-R269H); test: Whole cell voltage clamp recordings of TRPV4 currents from transfected HEK293 cells; assay type: cell-based, human; settings: 20 μM ruthenium red in the bath; voltage ramp -100 to 100 mV; cells expressing wtTRPV4 or TRPV4-R269H
Protocol: The effect of the CMT2C-linked mutation (TRPV4R269H) on the electrophysiological properties of TRPV4 was examined. Whole-cell patch-clamp recordings were obtained from transiently transfected HEK293 cells.
Whole cell voltage clamp recordings were performed to HEK293 cells transiently transfected with wild-type or R269H TRPV4 cDNA. […] Similar GFP-fluorescent cells were selected for experiments. […] The series resistance was 4 to 14 MSΩ and was compensated between 65 and 75%. The extracellular solution consisted of (in mM): NaCl 100, KCl 6, MgCl2 2, CaCl2 1.5, Glucose 10, HEPES 10, pH 7.38 adjusted with NaOH, ˜315 mOsm adjusted with sucrose. Whole cell currents were recorded using an Axopatch 200B amplifier (Molecular Devices). Cells were held at −30 mV and currents were elicited by slow voltage ramps (from −100 mV to +100 mV, 0.6 sec duration), filtered at 5 KHz and sampled at 10 KHz. Drugs were bath-applied at a rate of ˜4 ml/min. The current density was determined by normalizing the current to the cell capacitance measured in voltage clamp using a −5 mV square pulse from a holding potential of −30 mV. Ruthenium red was prepared in a 20 mM stock solution (in water) and stored at 2-4° C. Working solutions were prepared freshly daily and were bath applied. After drug application the dish was discarded even if complete wash-out of the drug was obtained.

[2] = system: TRPV4 (wtTRPV4, TRPV4R269H, TRPV4R316C); test: Calcium imaging, internal Fura-2 fluorescence ratio (340/380), in transiently transfected HEK293 cells; assay type: cell-based, human; settings: for effect on [Ca2+]i (internal fluorescence ratio): WT-TRPV4, R269H and R316C transfected HEK293 cells
Protocol: The TRPV4 channel responds to a variety of stimuli (Nilius et al. Physiol Rev 87, 165-217 (2007); herein incorporated by reference in its entirety). To test the potential effects of the mutations on calcium channel activity, the calcium channel activity of transiently transfected HEK293 cells was analyzed using internal Fura-2 fluorescence ratio (340/380) as an indicator of the intracellular Ca2+ levels, which depend on Ca2+ influx. Calcium levels of the transfected cells were examined in response to various stimuli, including TRPV4-specific agonist 4α-phorbol 12, 13-didecanoate (4αPDD) (SEE FIG. 4), osmotic cell swelling (SEE FIG. 5), moderate heat (37° C.) (SEE FIG. 9) and endogenous agonist arachidonic acid (SEE FIG. 10). A consistent pattern of channel response to different stimuli was observed. […] The increased calcium channel activity was inhibited by TRPV antagonist ruthenium red.
Human embryonic kidney cells (HEK293) were grown on collagen-coated glass coverslips in Dulbecco's modified Eagle's medium containing 10% (v/v) human serum, 2 mM L-glutamine, 2 U/ml penicillin, and 2 […] at 37° C. in a humidity-controlled incubator with 5% CO2. The cells were transiently transfected with expression vectors, wild-type TRPV4, TRPV4^R316C or TRPV4^R269H using Lipofectamine 2000 (Invitrogen).
Intracellular free calcium concentration was measured using digital video microfluorimetry. Twenty-four hours after transfection, cells were rinsed briefly with HEPES buffer (120 mM NaCl, 5.4 mM KCl, 1.6 mM MgCl2, 1.8 mM CaCl2, 11 mM glucose, and 25 mM HEPES, pH 7.2), and loaded with 4 μM fura-2 AM (Molecular Probes) in HEPES buffer for 30 min at room temperature. […] The coverslips were then mounted on the stage of a Nikon Diaphot inverted epifluorescence microscope equipped for digital fluorescence microscopy. After excitation at 340 nm (Ca^2+-bound) and 380 nm (Ca^2+-free) fluorescence was digitally monitored at 520 nm. […] Values for Rmin and Rmax were determined by applying Ca^2+-free solution and high Ca^2+ containing solution in the presence of 5 μM ionomycin, respectively. […]

N.N.N.N.N.N.N.N.N.N.N.N.N.N.[Cl-].[Cl-].[Cl-].[Cl-].[Cl-].[Cl-].[O-2].[O-2].[Ru+3].[Ru+3].[Ru+4] [ruthenium red]
effect on basal whole-cell currents [1]: dramatically reduced the currents | effect on the increased calcium channel activity ([2]; ruthenium red 20 μM used to block the stimuli, transfected HEK293 cells): inhibited

CCCCC/C=C\C/C=C\C/C=C\C/C=C\CCCC(=O)O [AA, arachidonic acid]
effect on [Ca2+]i (internal fluorescence ratio) ([2]; arachidonic acid 10 μM): induced an increase in [Ca^2+]i

CCCCCCCCCC(=O)O[C@@H]1[C@@H](C)[C@@]2(O)[C@@H](C=C(CO)C[C@@]3(O)C(=O)C(C)=C[C@@H]23)[C@@H]2C(C)(C)[C@]12OC(=O)CCCCCCCCC [4αPDD, 4α-phorbol 12, 13-didecanoate]
effect on [Ca2+]i (internal fluorescence ratio) ([2]; 4αPDD 2 μM): induced an increase in [Ca2+]i
